In patent US12351571B2, “Substituted quinoxaline compounds as inhibitors of FGFR tyrosine kinases” (ARRAY BIOPHARMA INC., priority 2018, dated 2025):
pIC50: −log10 of the molar value.

Experiments:
human wild type FGFR1 = human wild type FGFR1 (Homo sapiens (Human), UniProt P11362); experiment: FGFR1 pERK Cell Assay; format: cell-based; settings: HEK-293 cells, 1 hour compound, 100 ng/ml human FGF-acidic; maximum concentration 5 μM
Description: HEK-293 cells transfected with doxycycline(dox)-inducible human wild type FGFR1 (SEQ ID NO: 1) were plated in a collagen or poly-D-lysine coated 96 well flat bottom plates at 4×10^5 cells/well in complete Dulbecco's Modified Eagle Medium (DMEM) containing 10% FBS and 1 μg/ml doxycycline and allowed to attach for 24 h at 37° C., 5% CO2. Cells were treated with compound using 1:3 serial dilutions with a maximum final concentration of 5 μM. Compound was incubated on cells for 1 hour at 37° C., 5% CO2. Cells were then stimulated with a final concentration of 100 ng/ml human FGF-acidic (R&D Systems Cat number 232-FA/CF) for 5 minutes at 37° C., 5% CO2. Medium was removed, and cells were lysed with lysis buffer containing phosphatase and protease inhibitors. Phospho ERK1/2 was measured using the Meso Scale Discovery sandwich assay (Meso Scale Discovery cat. no. K151DWD). The assay captures phospho ERK1/2 and detects with a sulfo-tagged total ERK1/2 antibody. The chemiluminescent signal was read on the Sector Imager Plate reader. 100 POC was determined using no test compound and 0 POC was determined using a control compound. The POC values were fit to a 4-parameter logistic curve as a function of the concentration of the compound, and the IC50 value is the point where the curve crosses 50 POC.

phosphorylated FGFR3 = phosphorylated FGFR3 (Homo sapiens (Human), UniProt P22607); experiment: FGFR Enzyme Binding Assay (HTRF tracer displacement), FGFR3; settings: 5 nM phosphorylated FGFR3, 60 minute incubation at 22° C.; read-out: FGFR3 Enz Binding IC50
Description: (§1) The potency of compounds inhibiting human isoforms of FGFR kinase was determined using Life Technologies' Homogeneous Time Resolved Fluorescence (HTRF)-based binding assay technology. An incubation was conducted with either 5 nM dephosphorylated FGFR1 (Array Biopharma, p1702; SEQ ID NO: 1, amino acids 458 to 765, dephosphorylated by co-expression with PTP1b (protein tyrosine phosphatase 1B)), 5 nM dephosphorylated FGFR2 (Life Technologies, Cat. No. PV4106 that had been dephosphorylated with Lambda protein phosphatase (New England Biolabs, cat #P0753)) or 5 nM phosphorylated FGFR3 (Array Biopharma, p1836; SEQ ID NO: 5, amino acids 449 to 759), 50 nM Kinase Tracer 236 (Life Technologies Cat. No. PR9078A), 2 nM Biotin-anti-6HIS (Life Technologies Cat. No. PV6090) and 2 nM Europium-Streptavidin (Life Technologies Cat. No. PV6025) along with test compound in a buffer consisting of 50 mM HEPES ((4-(2-hydroxyethyl)-1-piperazineethanesulfonic acid, pH 7.5), 5 mM MgCl2, 0.005% Triton X-100, 1 mM DTT, 1 mM NaVO4 and 2% DMSO in a final volume of 12 μL Compounds were typically prepared as a 3-fold or 4-fold serial dilution in DMSO and added to the assay to give the appropriate final concentration. After a 60 minute incubation at 22° C., the extent of tracer displacement was determined using a PerkinElmer EnVision multimode plate reader via HTRF dual wavelength detection, and the percent of control (POC) was calculated using a ratiometric emission factor. One hundred POC was determined using no test compound, and 0 POC was determined in the presence of 1 μM of an appropriate control inhibitor. A 4-parameter logistic curve was fit to the POC values as a function of the concentration of compound, and the IC50 value was the point where the best-fit curve crossed 50 POC.

[1] = target: recombinant human FGFR2 cytoplasmic domain (Homo sapiens (Human), UniProt P21802); experiment: FGFR Enzyme Activity Assay (LanthaScreen TR-FRET), FGFR2; format: biochemical; settings: 15 μM ATP, 20 minute incubation; read-out: FGFR2 Enz FRET IC50
Description: FGFR2 kinase activity was measured by the Invitrogen LanthaScreen™ Assay technology which directly measures the amount of substrate phosphorylation by TR-FRET using a flourescently-labeled peptide and Europium-labeled antibody. Briefly, 200 pM His-tagged recombinant human FGFR2 cytoplasmic domain (amino acids 403-822) (Life Technologies Cat. No. PR5332A) was incubated with 100 nM Alexa Fluor® 647-Poly-GT Peptide Substrate (Life Technologies Cat. No. PV5836) and 15 μM ATP along with test compound in a buffer consisting of 250 mM HEPES, 25 mM MgCl2, 0.05% TritonX-100, pH 7.5, and 2% DMSO. Compounds were typically prepared in a threefold serial dilution in DMSO and added to the assay to give the appropriate final concentration. After a 20 minute incubation at 22° C., an equal volume of 2 nM LanthaScreen® Eu-PY20 Antibody (Life Technologies Cat. No. PV5691) and 10 mM EDTA were added to quench the kinase reaction and start the detection reaction. After an additional 60 minute incubation at 22° C., the reaction was measured using a PerkinElmer EnVision multimode plate reader via TR-FRET dual wavelength detection, and the percent of control (POC) calculated using a ratiometric emission factor. 100 POC was determined using no test compounds and 0 POC was determined using no enzyme. The POC values were fit to a 4-parameter logistic curve as a function of the concentration of the compound, and the IC50 value is the point where the curve crosses 50 POC.

dephosphorylated FGFR1 = dephosphorylated FGFR1 (Homo sapiens (Human), UniProt P11362); experiment: FGFR Enzyme Binding Assay (HTRF tracer displacement), FGFR1; settings: 5 nM dephosphorylated FGFR1, 60 minute incubation at 22° C.; read-out: FGFR1 Enz Binding IC50
Description: as §1

dephosphorylated FGFR1, sequence (P11362 458-765): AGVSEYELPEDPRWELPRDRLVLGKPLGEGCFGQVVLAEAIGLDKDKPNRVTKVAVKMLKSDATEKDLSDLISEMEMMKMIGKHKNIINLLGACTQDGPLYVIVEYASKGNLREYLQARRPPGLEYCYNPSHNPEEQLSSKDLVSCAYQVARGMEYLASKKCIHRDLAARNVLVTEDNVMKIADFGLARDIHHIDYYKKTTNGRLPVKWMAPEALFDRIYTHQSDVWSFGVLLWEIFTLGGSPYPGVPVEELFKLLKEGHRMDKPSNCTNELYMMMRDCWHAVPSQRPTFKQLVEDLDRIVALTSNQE
recombinant human FGFR2 cytoplasmic domain, sequence (P21802 402-821): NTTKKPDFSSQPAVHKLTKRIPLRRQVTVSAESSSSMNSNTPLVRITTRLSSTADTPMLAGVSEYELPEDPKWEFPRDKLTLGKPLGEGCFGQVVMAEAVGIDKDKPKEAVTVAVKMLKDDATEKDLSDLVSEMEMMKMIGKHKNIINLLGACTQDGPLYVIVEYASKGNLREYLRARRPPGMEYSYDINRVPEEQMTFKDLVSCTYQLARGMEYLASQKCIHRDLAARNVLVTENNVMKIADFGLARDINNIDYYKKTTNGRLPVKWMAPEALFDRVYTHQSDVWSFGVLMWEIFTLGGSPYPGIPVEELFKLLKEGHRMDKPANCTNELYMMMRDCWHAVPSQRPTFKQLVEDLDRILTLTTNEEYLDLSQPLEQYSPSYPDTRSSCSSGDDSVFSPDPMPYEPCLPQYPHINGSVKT
human wild type FGFR1, sequence (P11362 22-822): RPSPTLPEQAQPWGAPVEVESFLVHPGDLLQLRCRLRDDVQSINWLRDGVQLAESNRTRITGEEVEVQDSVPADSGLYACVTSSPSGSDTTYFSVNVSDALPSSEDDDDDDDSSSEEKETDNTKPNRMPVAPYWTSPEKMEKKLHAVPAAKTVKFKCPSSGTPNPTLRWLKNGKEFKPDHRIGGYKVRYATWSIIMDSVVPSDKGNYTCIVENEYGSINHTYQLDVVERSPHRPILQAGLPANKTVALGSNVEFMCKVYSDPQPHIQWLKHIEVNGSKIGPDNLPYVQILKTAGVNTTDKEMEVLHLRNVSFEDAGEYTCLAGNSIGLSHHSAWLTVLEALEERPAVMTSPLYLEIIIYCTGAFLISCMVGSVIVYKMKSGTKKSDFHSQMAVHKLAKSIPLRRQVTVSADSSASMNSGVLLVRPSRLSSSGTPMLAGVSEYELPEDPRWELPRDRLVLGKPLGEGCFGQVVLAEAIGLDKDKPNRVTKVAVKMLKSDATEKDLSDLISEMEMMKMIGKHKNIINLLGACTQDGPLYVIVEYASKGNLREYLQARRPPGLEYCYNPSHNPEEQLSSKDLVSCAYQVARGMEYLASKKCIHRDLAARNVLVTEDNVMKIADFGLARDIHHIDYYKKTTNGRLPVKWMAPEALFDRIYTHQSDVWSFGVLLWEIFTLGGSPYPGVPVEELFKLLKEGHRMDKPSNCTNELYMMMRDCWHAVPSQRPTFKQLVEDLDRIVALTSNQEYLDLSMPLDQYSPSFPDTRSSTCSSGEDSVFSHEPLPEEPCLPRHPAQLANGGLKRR
phosphorylated FGFR3, sequence (P22607 449-759): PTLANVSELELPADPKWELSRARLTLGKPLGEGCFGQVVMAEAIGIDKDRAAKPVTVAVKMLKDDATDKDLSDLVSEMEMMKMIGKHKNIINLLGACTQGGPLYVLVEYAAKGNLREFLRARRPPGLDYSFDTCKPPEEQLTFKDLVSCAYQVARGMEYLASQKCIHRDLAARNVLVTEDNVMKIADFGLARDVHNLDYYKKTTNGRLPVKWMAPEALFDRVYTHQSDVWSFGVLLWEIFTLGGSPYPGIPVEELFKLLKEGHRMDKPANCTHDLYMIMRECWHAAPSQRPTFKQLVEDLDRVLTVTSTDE

Structure (SMILES) | pIC50 (human wild type FGFR1) | pIC50 (phosphorylated FGFR3) | pIC50 [1] | pIC50 (dephosphorylated FGFR1)
C#CCN(c1cc(OC)cc(OC)c1)c1ccc2ncc(-c3cnn(C4CCN(C(=O)C5(F)CN(C(=O)/C=C/CN(C)C)C5)CC4)c3)nc2c1 [Example 28, (E)-1-(3-(4-(4-(7-((3,5-dimethoxyphenyl)(prop-2-yn-1-yl)amino)quinoxalin-2-yl)-1H-pyrazol-1-yl)piperidine-1-carbonyl)-3-fluoroazetidin-1-yl)-4-(dimethylamino)but-2-en-1-one] | 7.47 | 8.70 | 8.30 | 8.22
C=CC(=O)N1CC(CN2CCC(n3cc(-c4cnc5ccc(Nc6cc(OC)cc(OC)c6)cc5n4)cn3)CC2)(OC)C1 [Example 29, 1-(3-((4-(4-(7-((3,5-dimethoxyphenyl)amino)quinoxalin-2-yl)-1H-pyrazol-1-yl)piperidin-1-yl)methyl)-3-methoxyazetidin-1-yl)prop-2-en-1-one] | 6.69 | 8.52 | 6.48 | 7.30
C=CC(=O)N1CC(CN2CCC(n3cc(-c4cnc5ccc(Nc6cc(OC)cc(OC)c6)cc5n4)cn3)CC2)C1 [Example 30, 1-(3-((4-(4-(7-((3,5-dimethoxyphenyl)amino)quinoxalin-2-yl)-1H-pyrazol-1-yl)piperidin-1-yl)methyl)azetidin-1-yl)prop-2-en-1-one] | 6.65 | 8.52 | 6.80 | 7.47
